As usually defined, the IC50 is the midpoint of a concentration-inhibition curve.

This passage reports IC50 and GI50 results from patent publication US20240132521A1, “COMPOUNDS AND METHODS FOR MODULATING HER2” (Iambic Therapeutics, Inc., priority 2022, published 2024).

One experiment addresses T1, wtERBB2 (Her2 WT) (Homo sapiens, UniProt P04626).
T1 construct: purchased Reaction Biology Kin-21-497
In words: HotSpot radiometric kinase activity assay, wtERBB2. The settings on record: biochemical activity, 30 nM wtERBB2, 10 μM 33P-ATP, 2 hours. The method, then:
(§1) The purpose of the wtERBB2, ERBB2-A775_G776insYVMA (ERBB2YVMA), wtEGFR biochemical assay was to evaluate the inhibition (% inhibition and IC50 values) of the small molecule inhibitors by using the “HotSpot” radiometric kinase activity assay. HotSpot assays monitor the production of kinase substrate by the radioactive gamma phosphate of adenosine triphosphate (33P-ATP) during biochemical reactions. HotSpot assays was performed in steps upon completion of the kinase reaction: deposition of a reaction mixture aliquot onto P81 ion exchange paper, extensive washing of the aforementioned P81 paper using phosphoric acid to remove unbound radiolabeled 33P-ATP from the P81 paper, and finally visualization and quantification of the dried P81 paper utilizing a phosphoimager. […] Typical reaction solutions (10 μL, final reaction volume) contained the following buffer conditions: 20 mM Hepes (pH 7.5), 10 mM MgCl2, 1 mM EGTA, 0.01% Brij35, 0.02 mg/mL BSA, 0.1 mM Na3VO4, 2 mM DTT, 1% DMSO. The assay was primed by preparing a fresh 0.2 mg/mL solution of pEY (Sigma Cat: P7244) substrate in the reaction buffer and supplementing that solution with […] of MnCl2 as substrate cofactor (Sigma Cat: M9522). The kinase of interest was then added to the solution at the appropriate concentration (30 nM wtERBB2 from, or 20 nM ERBB2YVMA, or 4 nM wtEGFR) and gently mixed prior to delivery of compound in 100% DMSO by acoustic dispensing (Beckman Echo550). Compound, Kinase, and substrate were allowed to incubate for 20 min at room temperature prior to the initiation of the reaction by addition of 33P-ATP (PerkinElmer Cat: NEG602, final conc 10 μM). […] IC50 determinations were made from a plot of kinase activity as a function of inhibitor concentration fit to the 4-parameter IC50 equation with the enzyme concentration held constant using GraphPad Prism (San Diego).

Another experiment has as its target BaF3_HER2WT cells (Homo sapiens, UniProt P04626). As to the kind of experiment: Cell growth inhibition assay (CellTiterGlo), BaF3_HER2WT. Format: cell-based. The settings on record: 3-day treatment, CellTiterGlo, read-out: Cell growth inhibition activity, HER2 WT.
The target in another experiment is BaF3_HER2YVMA cells (Homo sapiens, UniProt P04626, DUP772-775, cells depend on it). In words: Cell growth inhibition assay (CellTiterGlo), BaF3_HER2YVMA. The settings on record: 3-day treatment, CellTiterGlo, read-out: Cell growth inhibition activity, HER2 - YVMA. The format is cell-based.
Chain of BaF3_HER2YVMA cells (P04626 with tags, fused parts or gaps DUP772-775): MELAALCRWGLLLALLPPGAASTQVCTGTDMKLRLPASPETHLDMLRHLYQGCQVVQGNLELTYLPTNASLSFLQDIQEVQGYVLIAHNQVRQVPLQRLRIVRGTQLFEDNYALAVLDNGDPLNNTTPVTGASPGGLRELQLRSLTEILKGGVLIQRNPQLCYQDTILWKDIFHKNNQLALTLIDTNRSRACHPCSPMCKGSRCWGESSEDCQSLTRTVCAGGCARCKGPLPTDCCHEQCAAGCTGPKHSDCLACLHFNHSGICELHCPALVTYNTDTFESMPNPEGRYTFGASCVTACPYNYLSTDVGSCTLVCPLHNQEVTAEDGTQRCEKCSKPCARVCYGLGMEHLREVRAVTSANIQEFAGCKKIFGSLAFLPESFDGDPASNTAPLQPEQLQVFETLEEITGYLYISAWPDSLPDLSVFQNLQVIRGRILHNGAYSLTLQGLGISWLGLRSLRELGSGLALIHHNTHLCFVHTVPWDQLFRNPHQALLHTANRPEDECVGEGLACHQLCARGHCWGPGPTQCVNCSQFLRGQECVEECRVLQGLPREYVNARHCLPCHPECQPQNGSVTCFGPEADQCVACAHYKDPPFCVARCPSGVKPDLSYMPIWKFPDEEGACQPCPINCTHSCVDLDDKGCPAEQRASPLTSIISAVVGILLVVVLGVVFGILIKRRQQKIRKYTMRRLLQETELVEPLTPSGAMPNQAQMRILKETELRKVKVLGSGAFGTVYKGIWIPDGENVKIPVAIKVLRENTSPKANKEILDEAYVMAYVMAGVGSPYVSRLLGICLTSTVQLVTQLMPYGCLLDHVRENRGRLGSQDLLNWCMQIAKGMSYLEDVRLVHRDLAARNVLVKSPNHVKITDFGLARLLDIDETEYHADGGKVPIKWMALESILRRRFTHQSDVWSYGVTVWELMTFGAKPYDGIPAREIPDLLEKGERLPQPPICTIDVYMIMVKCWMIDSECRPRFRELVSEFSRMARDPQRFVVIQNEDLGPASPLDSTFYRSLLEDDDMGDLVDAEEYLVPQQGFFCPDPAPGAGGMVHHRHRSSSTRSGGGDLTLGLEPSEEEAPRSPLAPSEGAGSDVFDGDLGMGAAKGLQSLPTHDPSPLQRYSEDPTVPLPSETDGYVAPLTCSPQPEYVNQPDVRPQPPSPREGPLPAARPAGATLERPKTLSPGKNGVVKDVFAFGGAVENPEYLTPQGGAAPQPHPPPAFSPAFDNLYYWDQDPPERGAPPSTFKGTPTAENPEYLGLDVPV
A further experiment has as its target T2, wtEGFR (Homo sapiens, UniProt P00533).
T2 construct: purchased Invitrogen PR7295B
In words: HotSpot radiometric kinase activity assay, wtEGFR. The settings on record: biochemical activity, 4 nM wtEGFR, 10 μM 33P-ATP, 2 hours, read-out: EGFR WT IC50. As to the method: as §1

Experiment [1] addresses T3, ERBB2-A775_G776insYVMA (ERBB2YVMA) (Homo sapiens, UniProt P04626, INS775YVMA).
T3 construct: purchased SignalChem E27-13BG
In words: HotSpot radiometric kinase activity assay, ERBB2YVMA. The settings on record: biochemical activity, 20 nM ERBB2YVMA, 10 μM 33P-ATP, 2 hours, read-out: HER2 - YVMA IC50. An outline of the steps: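 Radiometric 33P transfer to pEY substrate (0.2 mg/mL, with MnCl2) in pH 7.5 HEPES/MgCl2 buffer with 1% DMSO; kinase 30 nM wtERBB2, 20 nM ERBB2YVMA or 4 nM wtEGFR.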

For a further experiment, the target named is BaF3_EGFRWT cells (Homo sapiens, UniProt P00533). In words: Cell growth inhibition assay (CellTiterGlo), BaF3_EGFRWT. The format is cell-based. The settings on record: 3-day treatment, CellTiterGlo, read-out: Cell growth inhibition activity, EGFR WT.

T1 sequence (P04626 23-1255): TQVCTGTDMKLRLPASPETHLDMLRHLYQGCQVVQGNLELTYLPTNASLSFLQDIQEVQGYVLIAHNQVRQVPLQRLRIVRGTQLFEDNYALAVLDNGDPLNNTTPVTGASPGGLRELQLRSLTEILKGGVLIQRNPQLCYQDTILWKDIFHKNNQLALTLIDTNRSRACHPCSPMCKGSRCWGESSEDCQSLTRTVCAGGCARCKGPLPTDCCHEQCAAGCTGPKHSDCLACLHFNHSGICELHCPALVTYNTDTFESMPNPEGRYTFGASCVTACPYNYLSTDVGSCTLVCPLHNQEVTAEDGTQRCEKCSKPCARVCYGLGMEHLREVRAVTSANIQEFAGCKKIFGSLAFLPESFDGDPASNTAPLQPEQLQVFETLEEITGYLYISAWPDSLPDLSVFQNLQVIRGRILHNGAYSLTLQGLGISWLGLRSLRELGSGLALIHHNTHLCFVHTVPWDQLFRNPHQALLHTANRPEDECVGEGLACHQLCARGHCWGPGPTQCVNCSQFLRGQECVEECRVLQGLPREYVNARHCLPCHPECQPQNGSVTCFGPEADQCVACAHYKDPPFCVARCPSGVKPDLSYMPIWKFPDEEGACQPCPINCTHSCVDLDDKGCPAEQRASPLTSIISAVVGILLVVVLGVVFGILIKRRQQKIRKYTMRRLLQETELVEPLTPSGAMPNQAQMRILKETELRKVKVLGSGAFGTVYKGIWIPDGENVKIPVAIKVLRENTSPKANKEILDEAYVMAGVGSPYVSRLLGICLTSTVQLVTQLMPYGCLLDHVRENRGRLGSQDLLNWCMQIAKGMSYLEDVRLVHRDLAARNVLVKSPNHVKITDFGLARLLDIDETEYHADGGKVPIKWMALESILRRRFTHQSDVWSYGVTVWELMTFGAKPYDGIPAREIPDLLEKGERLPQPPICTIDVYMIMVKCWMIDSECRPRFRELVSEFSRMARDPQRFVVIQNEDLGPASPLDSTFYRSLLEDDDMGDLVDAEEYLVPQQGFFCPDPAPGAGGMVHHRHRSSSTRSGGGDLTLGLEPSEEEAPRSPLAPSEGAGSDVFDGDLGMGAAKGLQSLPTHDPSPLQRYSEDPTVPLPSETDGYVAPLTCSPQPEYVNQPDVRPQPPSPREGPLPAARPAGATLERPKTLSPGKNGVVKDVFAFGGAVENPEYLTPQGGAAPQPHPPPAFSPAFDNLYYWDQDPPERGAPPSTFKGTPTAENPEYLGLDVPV
Chain of BaF3_HER2WT cells (P04626 whole entry, change not shown): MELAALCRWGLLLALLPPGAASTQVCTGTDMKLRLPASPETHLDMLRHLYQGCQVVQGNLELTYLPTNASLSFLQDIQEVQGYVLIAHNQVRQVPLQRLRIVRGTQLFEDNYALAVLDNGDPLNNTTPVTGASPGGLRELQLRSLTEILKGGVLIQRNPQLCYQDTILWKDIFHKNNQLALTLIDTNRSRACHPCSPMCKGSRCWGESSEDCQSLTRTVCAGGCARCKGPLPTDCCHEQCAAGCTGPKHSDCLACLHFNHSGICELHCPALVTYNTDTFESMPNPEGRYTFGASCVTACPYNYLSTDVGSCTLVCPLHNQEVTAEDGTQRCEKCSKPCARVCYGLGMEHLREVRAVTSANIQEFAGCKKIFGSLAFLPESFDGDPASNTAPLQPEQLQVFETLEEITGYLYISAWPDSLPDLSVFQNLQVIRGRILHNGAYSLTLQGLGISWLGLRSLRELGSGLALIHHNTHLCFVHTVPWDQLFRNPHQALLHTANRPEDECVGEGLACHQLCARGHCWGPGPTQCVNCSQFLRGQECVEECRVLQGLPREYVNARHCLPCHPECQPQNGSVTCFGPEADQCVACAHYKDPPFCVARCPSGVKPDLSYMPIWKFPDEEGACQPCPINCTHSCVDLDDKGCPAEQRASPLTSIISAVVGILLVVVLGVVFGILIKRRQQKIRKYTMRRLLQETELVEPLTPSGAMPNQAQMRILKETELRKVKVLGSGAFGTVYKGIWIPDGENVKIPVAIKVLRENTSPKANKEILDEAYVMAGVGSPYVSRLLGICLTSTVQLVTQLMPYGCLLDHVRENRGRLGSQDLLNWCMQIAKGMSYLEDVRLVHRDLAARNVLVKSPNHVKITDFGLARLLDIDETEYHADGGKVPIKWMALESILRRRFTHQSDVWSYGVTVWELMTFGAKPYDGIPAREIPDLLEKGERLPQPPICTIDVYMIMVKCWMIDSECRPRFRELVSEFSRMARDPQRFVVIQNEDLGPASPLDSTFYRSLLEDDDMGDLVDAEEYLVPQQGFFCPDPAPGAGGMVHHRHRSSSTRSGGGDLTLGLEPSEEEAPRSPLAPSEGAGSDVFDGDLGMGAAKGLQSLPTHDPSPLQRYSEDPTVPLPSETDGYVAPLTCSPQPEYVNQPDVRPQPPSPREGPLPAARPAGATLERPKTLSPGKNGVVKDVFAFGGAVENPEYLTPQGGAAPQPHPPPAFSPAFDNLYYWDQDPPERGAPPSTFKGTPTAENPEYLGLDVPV
T3 sequence (P04626 with tags, fused parts or gaps INS775YVMA limits assumed): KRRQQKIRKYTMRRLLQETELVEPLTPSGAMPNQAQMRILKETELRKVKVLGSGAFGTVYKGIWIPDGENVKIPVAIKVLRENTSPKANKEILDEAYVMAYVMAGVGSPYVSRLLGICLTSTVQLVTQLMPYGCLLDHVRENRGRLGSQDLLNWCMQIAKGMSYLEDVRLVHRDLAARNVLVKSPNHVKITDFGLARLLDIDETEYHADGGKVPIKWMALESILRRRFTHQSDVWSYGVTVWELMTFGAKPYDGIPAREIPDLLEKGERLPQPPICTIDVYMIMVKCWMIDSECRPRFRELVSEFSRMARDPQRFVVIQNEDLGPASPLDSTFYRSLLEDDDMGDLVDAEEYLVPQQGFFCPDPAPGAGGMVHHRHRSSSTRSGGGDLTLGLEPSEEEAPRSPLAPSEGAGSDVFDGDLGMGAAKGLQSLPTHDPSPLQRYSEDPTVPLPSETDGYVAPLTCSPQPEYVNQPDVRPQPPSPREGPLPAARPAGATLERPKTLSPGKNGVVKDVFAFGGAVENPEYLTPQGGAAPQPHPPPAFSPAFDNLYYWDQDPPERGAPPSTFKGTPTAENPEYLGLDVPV

For `Cc1cc(Nc2ncnn3cnc(C4CCN(C(=O)/C=C/CN(C)C)CC4)c23)ccc1Oc1ccn2ncnc2c1` [Example 88, (E)-1-(4-(4-((4-([1,2,4]triazolo[1,5-a]pyridin-7-yloxy)-3-methylphenyl)amino)imidazo[5,1-f][1,2,4]triazin-5-yl)piperidin-1-yl)-4-(dimethylamino)but-2-en-1-one], the figures for the IC50 (against wtERBB2 (Her2 WT); at wtEGFR; in experiment [1]) were 200 to 500 nM, 1500 to 5000 nM and 500 to 1500 nM, respectively. Moreover, the GI50 on BaF3_HER2WT cells lay within 500 to 1500 nM; at BaF3_HER2YVMA cells, 1500 to 5000 nM; on BaF3_EGFRWT cells, 1500 to 5000 nM.
Turning to `CN(C)C/C=C/C(=O)N1CC(c2ccn3ncnc(Nc4cnc(Oc5cccc(C(F)(F)F)c5)c(Cl)c4)c23)C1` [Example 90, (E)-1-(3-(4-((5-chloro-6-(3-(trifluoromethyl)phenoxy)pyridin-3-yl)amino)pyrrolo[2,1-f][1,2,4]triazin-5-yl)azetidin-1-yl)-4-(dimethylamino)but-2-en-1-one], the IC50 (against wtERBB2 (Her2 WT); on wtEGFR; in experiment [1]) was 1500 to 5000 nM throughout. Also, the GI50 on BaF3_HER2WT cells, on BaF3_HER2YVMA cells and at BaF3_EGFRWT cells was 1500 to 5000 nM throughout.
